Results taken from ChEMBL document CHEMBL5126572, “Synthesis and biological evaluation of new series of benzamide derivatives containing urea moiety as sEH inhibitors” (Bioorg Med Chem Lett, 2022).
Blank lines part the entries; values can stand above or below the molecule they belong to. The source made the active and inactive calls.

Columns and labels:
[1] = molecular target: T1, Bifunctional epoxide hydrolase 2 (Homo sapiens) (UniProt P34913); assay: Inhibition of sEH (unknown origin) at 100 nM relative to control
T1 sequence (whole entry): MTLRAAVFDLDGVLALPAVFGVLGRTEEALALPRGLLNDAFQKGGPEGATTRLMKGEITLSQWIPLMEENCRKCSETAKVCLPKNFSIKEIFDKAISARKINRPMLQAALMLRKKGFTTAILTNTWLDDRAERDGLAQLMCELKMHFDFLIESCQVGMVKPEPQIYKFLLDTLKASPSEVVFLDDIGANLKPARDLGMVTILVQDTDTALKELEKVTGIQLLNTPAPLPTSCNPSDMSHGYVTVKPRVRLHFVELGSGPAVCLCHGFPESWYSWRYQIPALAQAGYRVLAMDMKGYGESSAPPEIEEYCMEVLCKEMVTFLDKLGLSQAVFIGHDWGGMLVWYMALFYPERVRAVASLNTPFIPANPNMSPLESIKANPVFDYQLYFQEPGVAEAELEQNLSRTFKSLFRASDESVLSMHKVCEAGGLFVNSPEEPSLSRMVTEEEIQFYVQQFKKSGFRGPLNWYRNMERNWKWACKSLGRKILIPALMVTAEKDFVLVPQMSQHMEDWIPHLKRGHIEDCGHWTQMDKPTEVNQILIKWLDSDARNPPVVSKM

[2] = Microsomal stability in dog liver microsomes assessed as half life; assay type: ADME, Canis lupus familiaris, Microsome
[3] = Microsomal stability in mouse liver microsomes assessed as half life; assay type: ADME, Microsome
[4] = Microsomal stability in rat liver microsomes assessed as half life; assay type: ADME, Microsome
[5] = Microsomal stability in human liver microsomes assessed as half life; assay type: ADME, Microsome
Rattus norvegicus = assay: Antinociceptive activity in carrageenan-induced inflammatory pain Sprague-Dawley rat model assessed as increase in mechanical withdrawal threshold at 50 mg/kg, ip by von-frey filament assay; assay type: functional, organism-based

inhibition [1]: 63.1%
SMILES: Cc1cc(C(=O)Nc2ccc(Cl)cc2)ccc1N(CCN1CCOC[C@@H]1C)C(=O)Nc1ccc(Cl)cc1

inhibition [1]: 69.4%
SMILES: Cc1cc(C(=O)Nc2ccc(Cl)cc2)ccc1N(CC(C)C)C(=O)Nc1ccc(Cl)cc1

inhibition [1]: 84.5%
SMILES: CC(=O)c1ccc(NC(=O)c2ccc(N(CCN3CCOCC3)C(=O)Nc3ccc(Cl)cc3)c(C)c2)cc1

inhibition [1]: 67.2%
SMILES: CCN(CC)CCN(C(=O)Nc1ccc(Cl)cc1)c1ccc(C(=O)Nc2ccc(Cl)cc2)cc1C

half-life [2]: 33.5 min | inhibition [1]: 94.8% | half-life [3]: 26.2 min | half-life [4]: 16 min | half-life [5]: 27.5 min
SMILES: Cc1cc(C(=O)Nc2ccc(F)cn2)ccc1N(CCN1CCCC1)C(=O)Nc1ccc(Cl)cc1

SMILES: Cc1ccc(-c2cc(C(F)(F)F)nn2-c2ccc(S(N)(=O)=O)cc2)cc1
Activity (Rattus norvegicus): Active

half-life [2]: 11 min | inhibition [1]: 98.9% | half-life [3]: 8.8 min | half-life [4]: 4.5 min | half-life [5]: 9.5 min
SMILES: Cc1cc(C(=O)Nc2ccc(Cl)cc2)ccc1N(CCN1CCCC1=O)C(=O)Nc1ccc(Cl)cc1

inhibition [1]: 62.3%
SMILES: Cc1cc(C(=O)Nc2cnccn2)ccc1N(CCN1CCOCC1)C(=O)Nc1ccc(Cl)cc1

inhibition [1]: 95.2%
SMILES: Cc1cc(C(=O)Nc2ccc(Cl)cc2)ccc1N(CCN1CCS(=O)(=O)CC1)C(=O)Nc1ccc(Cl)cc1

SMILES: O=C(NC12CC3CC(CC(C3)C1)C2)N[C@H]1CC[C@H](Oc2ccc(C(=O)O)cc2)CC1
Activity (Rattus norvegicus): Active

inhibition [1]: 75.9%
SMILES: Cc1cc(C(N)=O)ccc1N(CCN1CCOCC1)C(=O)Nc1ccc(Cl)cc1

inhibition [1]: 80.3%
SMILES: Cc1cc(C(=O)Nc2ccc(Cl)cc2)ccc1NC(=O)Nc1ccc(Cl)cc1

inhibition [1]: 67.7%
SMILES: Cc1cc(C(=O)Nc2ccc(Cl)cc2)ccc1N(CCN(C)C)C(=O)Nc1ccc(Cl)cc1

half-life [2]: 137 min | inhibition [1]: 98.5% | half-life [3]: 35.8 min | half-life [4]: 27.3 min | half-life [5]: 197 min
SMILES: Cc1cc(C(=O)Nc2ccc(Cl)cc2)ccc1N(CCN1CCCC1)C(=O)Nc1ccc(Cl)cc1
Activity (Rattus norvegicus): Active

inhibition [1]: 74.3%
SMILES: Cc1cc(C(=O)Nc2ccc(Cl)cc2)ccc1N(CCO)C(=O)Nc1ccc(Cl)cc1

inhibition [1]: 67.1%
SMILES: Cc1cc(C(=O)Nc2ccc(Cl)cc2)ccc1N(CCN1CCOC[C@H]1C)C(=O)Nc1ccc(Cl)cc1

half-life [2]: 12.9 min | inhibition [1]: 93.9% | half-life [3]: 8.9 min | half-life [4]: 10.7 min | half-life [5]: 9.1 min
SMILES: Cc1cc(C(=O)Nc2ccc(Cl)cc2)ccc1N(CCN1CCOCC1=O)C(=O)Nc1ccc(Cl)cc1

half-life [2]: 5.4 min | inhibition [1]: 87.8% | half-life [3]: 7.7 min | half-life [4]: 5.4 min | half-life [5]: 5.8 min
SMILES: Cc1cc(C(=O)Nc2ccc(C(F)(F)F)nc2)ccc1N(CCN1CCOCC1)C(=O)Nc1ccc(Cl)cc1

inhibition [1]: 85.8%
SMILES: Cc1cc(C(=O)Nc2ccccn2)ccc1N(CCN1CCOCC1)C(=O)Nc1ccc(Cl)cc1

inhibition [1]: 90.4%
SMILES: Cc1cc(C(=O)Nc2ccc(Cl)cc2)ccc1N(CCN1CC[S+]([O-])CC1)C(=O)Nc1ccc(Cl)cc1

inhibition [1]: 83.3%
SMILES: Cc1cc(C(=O)Nc2ccc3c(c2)OCO3)ccc1N(CCN1CCCC1)C(=O)Nc1ccc(Cl)cc1

inhibition [1]: 64%
SMILES: Cc1cc(C(=O)Nc2ccc(C#N)cc2)ccc1N(CCN1CCOCC1)C(=O)Nc1ccc(Cl)cc1

inhibition [1]: 62.8%
SMILES: Cc1cc(C(=O)Nc2nccs2)ccc1N(CCN1CCOCC1)C(=O)Nc1ccc(Cl)cc1

inhibition [1]: 70.5%
SMILES: COCCN(C(=O)Nc1ccc(Cl)cc1)c1ccc(C(=O)Nc2ccc(Cl)cc2)cc1C

half-life [2]: 3.1 min | inhibition [1]: 94.5% | half-life [3]: 3.7 min | half-life [4]: 3.1 min | half-life [5]: 4 min
SMILES: Cc1cc(C(=O)Nc2ccc(F)cn2)ccc1N(CCN1CCCC1=O)C(=O)Nc1ccc(Cl)cc1

half-life [2]: 37 min | inhibition [1]: 95.7% | half-life [3]: 28.3 min | half-life [4]: 45.9 min | half-life [5]: 31.9 min
SMILES: Cc1cc(C(=O)Nc2ccc(Cl)cc2)ccc1N(CC(=O)N1CCOCC1)C(=O)Nc1ccc(Cl)cc1

inhibition [1]: 92.5%
SMILES: Cc1cc(C(=O)Nc2ccc(Cl)cc2)ccc1N(CCN1CCCCC1)C(=O)Nc1ccc(Cl)cc1

half-life [2]: 5.2 min | inhibition [1]: 95.6% | half-life [3]: 4 min | half-life [5]: 6.9 min
SMILES: Cc1cc(C(=O)Nc2ccc3c(c2)OCO3)ccc1N(CCN1CCOCC1)C(=O)Nc1ccc(Cl)cc1

inhibition [1]: 97.8%
SMILES: Cc1cc(C(=O)Nc2ccc(F)cn2)ccc1N(CCN1CCOCC1)C(=O)Nc1ccc(Cl)cc1

half-life [2]: 3.3 min | inhibition [1]: 92.7% | half-life [5]: 3.9 min
SMILES: Cc1cc(C(=O)Nc2ccc3c(c2)OCO3)ccc1N(CCN1CCCC1=O)C(=O)Nc1ccc(Cl)cc1

inhibition [1]: 87.7%
SMILES: Cc1cc(C(=O)Nc2cnn(C)c2)ccc1N(CCN1CCOCC1)C(=O)Nc1ccc(Cl)cc1

inhibition [1]: 83.7%
SMILES: Cc1cc(C(=O)Nc2ccc(Cl)cc2)ccc1N(CCN1CCSCC1)C(=O)Nc1ccc(Cl)cc1
